Measured values published in patent US10391095B2, “DNA-PK inhibitors” (Vertex Pharmaceuticals Incorporated, priority 2012, dated 2019).

Biological target: DNA-PK (Homo sapiens, UniProt P78527)
Experiment: DNA-PK inhibition assay (radiometric, 33P-ATP)
Format: biochemical
Conditions: 100 μM ATP, competitive tight-binding fit
Experimental: Compounds were screened for their ability to inhibit DNA-PK kinase using a standard radiometric assay. Briefly, in this kinase assay the transfer of the terminal ^33P-phosphate in ^33P-ATP to a peptide substrate is interrogated. The assay was carried out in 384-well plates to a final volume of 50 μL per well containing approximately 6 nM DNA-PK, 50 mM HEPES (pH 7.5), 10 mM MgCl2, 25 mM NaCl, 0.01% BSA, 1 mM DTT, 10 μg/mL sheared double-stranded DNA (obtained from Sigma), 0.8 mg/mL DNA-PK peptide ([…] obtained from American Peptide), and 100 μM ATP. Accordingly, compounds of the invention were dissolved in DMSO to make 10 mM initial stock solutions. Serial dilutions in DMSO were then made to obtain the final solutions for the assay. A 0.75 μL aliquot of DMSO or inhibitor in DMSO was added to each well, followed by the addition of ATP substrate solution containing ^33P-ATP (obtained from Perkin Elmer). The reaction was started by the addition of DNA-PK, peptide and ds-DNA. After 45 min, the reaction was quenched with 25 μL of 5% phosphoric acid. The reaction mixture was transferred to MultiScreen HTS 384-well PH plates (obtained from Millipore), allowed to bind for one hour, and washed three times with 1% phosphoric acid. Following the addition of 50 μL of Ultima Gold™ high efficiency scintillant (obtained from Perkin Elmer), the samples were counted in a Packard TopCount NXT Microplate Scintillation and Luminescence Counter (Packard BioScience). The Ki values were calculated using Microsoft Excel Solver macros to fit the data to the kinetic model for competitive tight-binding inhibition.

Compound	Ki [nM]
COc1ncc(-c2cc(NC[C@@H](C)c3ccnc4c3OCC4)ncn2)cc1N [Compound 589]	< 30
COc1cc(N)ccc1C(C)CNc1cc(-c2ccc(C)nc2)ncn1 (stereo not shown) [Compound 178]	< 30
CNC(=O)c1ccnc2c([C@H](C)CNc3cc(-c4cnc(C5CCC5)nc4)ncn3)ccc(F)c12 [Compound 851]	< 30
CNC(=O)c1ccnc2c([C@H](C)CNc3cc(-c4ccc(OCCN5CCCC5)cc4)ncn3)cccc12 [Compound 727]	< 30
CNC(=O)c1c(F)cnc2c([C@H](C)CNc3cc(-c4cnc(CO)c(OC)c4)ncn3)cccc12 [Compound 920]	< 30
CNC(=O)c1ccnc2c([C@H](C)CNc3cc(-c4cnc(C5CCC5)nc4)ncn3)cccc12 [Compound 846]	< 30
COc1ccc(N)cc1C(C)CNc1cc(-c2ccc(C)nc2)ncn1 (stereo not shown) [Compound 290]	< 30
CNC(=O)c1ccnc2c([C@H](C)CNc3cc(-c4cnc(OC)nc4)ncn3)cccc12 [Compound 606]	< 30
CNC(=O)c1ccnc2c([C@H](C)CNc3cc(-c4cccnc4)ncn3)cccc12 [Compound 612]	< 30
Cc1ccc(-c2cc(NCC(C)c3ccncc3OC3CC3)ncn2)cn1 (stereo not shown) [Compound 287]	< 30
CNC(=O)c1ccnc2c([C@H](C)CNc3cc(-c4ccc(N(C)C5CCS(=O)(=O)C5)nc4)ncn3)cccc12 (stereo partly shown) [Compound 711]	< 30
CNC(=O)c1ccc(C(C)CNc2cc(-c3ccc4c(cnn4C4COC4)c3C)ncn2)c(OC)c1 (stereo not shown) [Compound 278]	< 30
CNC(=O)c1ccc(C(C)CNc2cc(-c3cnc4c(cnn4CC#N)c3)ncn2)c(OC)c1 (stereo not shown) [Compound 441]	< 30
CC(=O)c1ccc(-c2cc(NC[C@@H](C)c3ccnc4c3OCC4)ncn2)cc1 [Compound 596]	< 30
CNC(=O)c1ccnc2c([C@H](C)CNc3cc(-c4ccc(C)nc4)ncn3)ccc(OC)c12 [Compound 509]	< 30
COc1ccccc1CCNc1cc(-c2cnc3c(cnn3C3CCN(C)CC3)c2)ncn1 [Compound 82]	< 30
CNC(=O)c1ccnc2c([C@H](C)CNc3cc(-c4ccc(C)nc4)ncn3)cccc12 [Compound 476]	< 30

Compound	Ki [nM]
C[C@H](CNc1cc(-c2cc(F)c3ncccc3c2)ncn1)c1ccnc2c1OCCO2 [Compound 556]	< 30
C=C(CNc1cc(-c2ccc(C)nc2)ncn1)c1cccc2c(C(=O)NC)ccnc12 [Compound 467]	< 30
CNC(=O)c1ccc([C@H](C)CNc2cc(-c3ccc(CN)cc3)ncn2)c(OC)c1 [Compound 351]	< 30
CNC(=O)c1ccc([C@H](C)CNc2cc(-c3ccc(N(C)C(C)C4CC4)nc3)ncn2)c(OC)c1 (stereo partly shown) [Compound 341]	< 30
CNC(=O)c1ccc([C@H](C)CNc2cc(-c3ccc(F)nc3)ncn2)c(OC)c1 [Compound 328]	< 30
COc1ccccc1CCNc1cc(-c2cnc3c(ccn3CC3CC3)c2)ncn1 [Compound 40]	< 30
COc1ccccc1[C@H](C)CNc1cc(-c2cnc3c(ccn3C)c2)ncn1 [Compound 173]	< 30
COc1sccc1C(C)CNc1cc(-c2cnc3c(cnn3CC3CC3)c2)ncn1 (stereo not shown) [Compound 266]	< 30
COc1cc(F)c(F)cc1[C@H](C)CNc1cc(-c2ccc(C)nc2)ncn1 [Compound 128]	< 30
C[C@H](CNc1cc(-c2ccc3ncccc3c2)ncn1)c1ccnc2c1OCC2 [Compound 480]	< 30
CNC(=O)c1ccnc2c([C@H](C)CNc3cc(-c4ccnc(N5CCCC5=O)c4)ncn3)cccc12 [Compound 893]	< 30
CNC(=O)c1ccc(C(C)CNc2cc(-c3cnc4c(cnn4CC(=O)OC)c3)ncn2)c(OC)c1 (stereo not shown) [Compound 273]	< 30
CNC(=O)c1ccnc2c([C@H](C)CNc3cc(-c4cc(F)c(OC(C)C)c(F)c4)ncn3)cccc12 [Compound 872]	< 30
CNC(=O)c1ccc([C@H](C)CNc2cc(-c3ccc4[nH]c(=O)[nH]c4c3)ncn2)c(OC)c1 [Compound 315]	< 30
C[C@H](CNc1cc(-c2ccc(N3CCOCC3)nc2)ncn1)c1ccnc2c1OCCO2 [Compound 522]	< 30
[2H]c1nc(C)nc([2H])c1-c1cc(NC[C@@H](C)c2ccc(F)c3c(C(=O)NC)ccnc23)ncn1 [Compound 861]	< 30
CCOc1ccc(-c2cc(NCC(C)c3ccc(C(=O)NC)cc3OC)ncn2)cn1 (stereo not shown) [Compound 322]	< 30

More lines, now with the values ahead:

Ki [nM]	Compound
< 30	CNC(=O)c1ccnc2c([C@H](C)CNc3cc(-c4cc(OC)nc(OC)c4)ncn3)cccc12 [Compound 889]
< 30	Cc1ccc(-c2cc(NCC(C)c3cccc4cccnc34)ncn2)cn1 (stereo not shown) [Compound 235]
< 30	CNC(=O)c1ccnc2c([C@H](C)CNc3cc(-c4cnnc(C)c4)ncn3)cccc12 [Compound 841]
< 30	CNC(=O)c1ccc(C(C)CNc2cc(-c3cnc4c(cnn4CCN4CCCC4=O)c3)ncn2)c(OC)c1 (stereo not shown) [Compound 239]
< 30	CNC(=O)c1ccc(C(C)CNc2cc(-c3ccc4c(c3)c(C)nn4C3COC3)ncn2)c(OC)c1 (stereo not shown) [Compound 279]
< 30	CNC(=O)c1ccnc2c([C@H](C)CNc3cc(-c4cnc(N5CCOCC5)c(C#N)c4)ncn3)cccc12 [Compound 946]
< 30	COc1ccccc1[C@H](C)CNc1cc(-c2ccc(N(C)C)nc2)ncn1 [Compound 255]
< 30	COCCn1ncc2cc(-c3cc(NCC(C)c4ccccc4OC4COC4)ncn3)cnc21 (stereo not shown) [Compound 215]
< 30	CCNc1ccc(-c2cc(NC[C@@H](C)c3cccc4c(C(=O)NC)ccnc34)ncn2)cn1 [Compound 581]
< 30	CNCCCNc1ccc(-c2cc(NC[C@@H](C)c3ccccc3OC)ncn2)cn1 [Compound 201]
< 30	COc1ccc(Br)cc1C(C)CNc1cc(-c2ccc(C)nc2)ncn1 (stereo not shown) [Compound 245]
< 30	COc1ccccc1CCNc1cc(-c2cnc3c(cnn3C(C)C)c2)ncn1 [Compound 44]
< 30	CCOc1cc(-c2cc(NC[C@@H](C)c3ccc(F)c4c(C(=O)NC)ccnc34)ncn2)cnc1OCC [Compound 905]
< 30	Cc1ccc(-c2cc(NC[C@@H](C)c3ccnc4c3OCCC4)ncn2)cn1 [Compound 535]
< 30	CNC(=O)c1ccnc2c([C@H](C)CNc3cc(-c4ccc(C(=O)N(C)C)s4)ncn3)cccc12 [Compound 777]
< 30	CNC(=O)c1ccnc2c([C@H](C)CNc3cc(-c4ccc(C5(C#N)CC5)cc4)ncn3)cccc12 [Compound 681]
< 30	CNC(=O)c1c(F)cnc2c([C@H](C)CNc3cc(-c4cnc(C)nc4)ncn3)cccc12 [Compound 636]
< 30	CNC(=O)c1ccnc2c([C@H](C)CNc3cc(-c4cncc(N5CCOCC5)c4)ncn3)cccc12 [Compound 912]

Ki [nM]	Compound
< 30	CNC(=O)c1ccnc2c([C@H](C)CNc3cc(-c4cncc(COC)c4)ncn3)cccc12 [Compound 840]
< 30	CNC(=O)c1ccnc2c([C@H](C)CNc3cc(-c4cnc(N5CCCC(O)C5)nc4)ncn3)cccc12 (stereo partly shown) [Compound 728]
< 30	CNC(=O)c1ccnc2c([C@H](C)CNc3cc(-c4ccnc(NC5CC5)c4)ncn3)cccc12 [Compound 894]
< 30	CNC(=O)c1ccc(-c2cc(NC[C@@H](C)c3cccc4c(C(=O)NC)ccnc34)ncn2)cc1 [Compound 754]
< 30	CCOC(=O)c1ccc(-c2cc(NC[C@@H](C)c3cccc4c(C(=O)NC)ccnc34)ncn2)o1 [Compound 795]
< 30	CNC(=O)c1ccc(C(C)CNc2cc(-c3ccc(OCC4CC4)nc3)ncn2)c(OC)c1 (stereo not shown) [Compound 326]
< 30	CNC(=O)c1ccnc2c([C@H](C)CNc3cc(-c4ccc(C5CCC5)nc4)ncn3)cccc12 [Compound 845]
< 30	CNC(=O)c1ccc(C(C)CNc2cc(-c3ccc4ncccc4c3)ncn2)c(OC)c1 (stereo not shown) [Compound 256]
< 30	CNC(=O)c1ccnc2c([C@H](C)CNc3cc(-c4cnc(N)c(C)c4)ncn3)cccc12 [Compound 948]
< 30	CNC(=O)c1c(F)cnc2c([C@H](C)CNc3cc(-c4ccc(OC)nc4)ncn3)cccc12 [Compound 900]
< 30	CNC(=O)c1ccc(C(C)CNc2cc(-c3ccc(OC4CN(C(C)=O)C4)nc3)ncn2)c(OC)c1 (stereo not shown) [Compound 327]
< 30	CNCCNc1ccc(-c2cc(NC[C@@H](C)c3cccc4c(C(=O)NC)ccnc34)ncn2)cn1 [Compound 584]
< 30	CNC(=O)c1ccnc2c([C@H](C)CNc3cc(-c4ccc(NCCC(C)O)nc4)ncn3)cccc12 (stereo partly shown) [Compound 709]
< 30	CNC(=O)c1ccnc2c([C@H](C)CNc3cc(-c4ccc(C5(N)CC5)nc4)ncn3)cccc12 [Compound 939]
< 30	COc1ccccc1CCNc1cc(-c2ccc3ncccc3c2)ncn1 [Compound 1]
< 30	CNC(=O)c1ccnc2c([C@H](C)CNc3cc(-c4ccc(O)nc4)ncn3)cccc12 [Compound 799]
< 30	CNC(=O)c1ccc([C@H](C)CNc2cc(-c3ccc4c(c3)ncn4C)ncn2)c(OC)c1 [Compound 263]
< 30	CNC(=O)c1ccnc2c([C@H](C)CNc3cc(-c4ccc(NCc5cocn5)nc4)ncn3)cccc12 [Compound 712]
